Values of other authors in paper PMC11187573, “Identification of SARS-CoV-2 Mpro inhibitors through deep reinforcement learning for de novo drug design and computational chemistry approaches” (RSC Medicinal Chemistry, 2024).

System: Mpro
Conditions: ML dataset, Origin COVID_Moonshot; ref COVID Moonshot; cited from earlier work

Row | Structure (SMILES) | IC50 [µM]
1 | CN(C)C(=O)C[C@]1(C(=O)Nc2cncc3ccccc23)CCOc2ccc(Cl)cc21 [MAT-POS-f9802937-3] | 1.3
2 | CC(C)(C)c1ccc(N(C(=O)c2cocn2)C(C(=O)NCCc2cccc(F)c2)c2cccnc2)cc1 (stereo not shown) [ALP-POS-02c6a514-50] | 0.557
3 | CC(C)(C)c1ccc(N(C(=O)c2cocn2)C(C(=O)NCCc2cccc(F)c2)c2ccnnc2)cc1 (stereo not shown) [ALP-POS-d0876c20-5] | 2.05
4 | CC(C)(C)c1ccc(N(C(=O)c2cocn2)C(C(=O)NCC2CCOC2)c2cccnc2)cc1 (stereo not shown) [ALP-POS-88a7a97e-26] | 5.42
5 | Cc1ccncc1NC(=O)N(Cc1ccccc1)c1cccc(Cl)c1 [EDG-MED-0da5ad92-20] | 22.9
6 | Cc1ccncc1NC(=O)C(C)c1cc(Cl)cc(OC2CC(=O)N2)c1 (stereo not shown) | 82.6
7 | O=C(NCCc1cccc(F)c1)C(c1cccnc1)N(C(=O)c1c[nH]cn1)c1ccc(Cn2cccn2)cc1 (stereo not shown) [BRU-THA-92256091-86] | 35.5
8 | O=C(Nc1cncc2ccccc12)C1COc2ccc(Cl)cc21 (racemic) | 1.86
9 | Cc1ccc(CC(=O)Nc2cncc3ccccc23)cc1 [RAL-THA-2d450e86-3] | 58.4
10 | Cc1ccncc1NC(=O)Cc1cc(Cl)cc(NC2(C)CCC(F)(F)CC2)c1 [MAT-POS-044491d2-6] | 30.1
11 | Cc1ccncc1NC(=O)Cc1cc(Cl)cc(-c2ccc(C)c(F)c2F)c1 | 44.1
12 | Cc1ccc(N(C(=O)c2cocn2)C(C(=O)NCCc2cccc(F)c2)c2cccnc2)cc1 (stereo not shown) [ALP-POS-ced8ea4d-27] | 50.2
13 | O=C(Nc1cncc2ccccc12)C1CCN(Cc2cnc[nH]2)c2ccc(Cl)cc21 (stereo not shown) [ALP-UNI-b33a865d-1] | 1.12
14 | O=C(c1cc(=O)[nH]c2ccccc12)N1CCN(c2ccccc2F)CC1 | 24
15 | COc1cccc(N2CCN(C(=O)c3cc(=O)[nH]c4ccccc34)CC2)c1 [BEN-DND-7e92b6ca-12] | 13.6
16 | CNc1ccc(N(Cc2ccsc2)C(=O)Cn2nnc3ccccc32)cc1 [ALP-POS-c59291d4-4] | 11.5
17 | COc1ccc(N(C(=O)c2ccco2)C(C(=O)NCCc2cccc(F)c2)c2cccnc2)cc1 (stereo not shown) [ALP-POS-b0bc6a46-22] | 30.5
18 | CC(C)(C)c1ccc(N(C(=O)c2ccn[nH]2)C(C(=O)NCCc2cccc(F)c2)c2cccnc2)cc1 (stereo not shown) [ALP-POS-02c6a514-52] | 1.78
19 | Cc1ccncc1NC(=O)Cc1cccc(C#N)c1 | 52.6
20 | O=C(Nc1cncc2[nH]c(=O)[nH]c12)C1CCOc2ccc(Cl)cc21 (stereo not shown) [EDG-MED-0e5afe9d-2] | 62.8
21 | N#Cc1cccc(NC(=O)Nc2c[nH]c3ncccc23)c1 [DAR-DIA-23aa0b97-11] | 63.6
22 | Cc1ccncc1NC(=O)[C@H]1CCOc2ccc(Cl)cc21 [MAT-POS-b3e365b9-3] | 5.66
23 | CCOc1ccc(N(C(=O)c2cocn2)C(C(=O)NCCc2cccc(F)c2)c2cccnc2)cc1 (stereo not shown) [ALP-POS-ced8ea4d-67] | 15.5
24 | CC(C(N)=O)c1cc(Cl)cc(CC(=O)Nc2cncc3ccccc23)c1 (stereo not shown) [MAT-POS-281d2ee9-1] | 2.62
25 | Cc1ccncc1NC(=O)CC(C)C(C)C (stereo not shown) | 99

Row | Structure (SMILES) | IC50 [µM]
26 | Cc1ccncc1NC(=O)Cc1cc(Cl)cc(-c2cnn(C)c2C(F)F)c1 [MAT-POS-f42f3716-7] | 17.6
27 | CS(=O)(=O)c1ccc(N(C(=O)c2cocn2)C(C(=O)NCCc2cccc(F)c2)c2cccnc2)cc1 (stereo not shown) [ALP-POS-ced8ea4d-9] | 75.9
28 | O=C(Cc1cccc(Cl)c1)Nc1cncc2nc[nH]c12 | 10.6
29 | Cc1ccncc1N1CCC(c2cccc(Cl)c2)S1(=O)=O (stereo not shown) [EDJ-MED-49816e9b-4] | 76.6
30 | CC(C)(C)c1ccc(N(C(=O)c2cocn2)C(C(=O)NC2CCOC2)c2cccnc2)cc1 (stereo not shown) [ALP-POS-88a7a97e-30] | 2.77
31 | O=C(Nc1cncc2ccccc12)N1CCOc2ccc(Cl)cc21 [BEN-DND-f2e727cd-1] | 11.4
32 | O=C(Cc1cccc(Cl)c1)Nn1nnc2ccccc21 | 18.4
33 | O=C(Cc1cccc(Cl)c1)Nc1cnc2ccccn12 | 8.03
34 | Cc1ccncc1NC(=O)Cc1cc(Cl)cc(NC2CCC(F)(F)C2O)c1 (stereo not shown) [MAT-POS-044491d2-2] | 24.4
35 | COC(=O)c1c(C)nn(C(=O)c2cccs2)c1-c1snnc1C [LON-WEI-4d77710c-66] | 3.12
36 | Nc1cncc2c1CCCN2C(=O)Cc1cccc(Cl)c1 | 43.4
37 | O=C(Nc1cncc2ccccc12)C1(CO)CCOc2ccc(Cl)cc21 (stereo not shown) [MAT-POS-9db1e783-2] | 1.09
38 | NS(=O)(=O)c1[nH]ncc1C(=O)NC[C@@]1(C(=O)Nc2cncc3ccccc23)CCOc2ccc(Cl)cc21 [EDJ-MED-4c7486ba-8] | 1.99
39 | O=C(CC1(C(=O)Nc2cncc3ccccc23)CCOc2ccc(Cl)cc21)N1CCN(CC(F)(F)CO)CC1 (stereo not shown) [ALP-UNI-8e43a71e-10] | 7.28
40 | CC(C)(C)c1ccc(N(C(=O)c2cocn2)C(C(=O)NCc2cccnc2)c2cccnc2)cc1 (stereo not shown) [ALP-POS-88a7a97e-4] | 25.3
41 | O=C(Nc1cncc2ccccc12)C1CCN(Cc2ccccc2)c2ccc(Cl)cc21 (stereo not shown) [RAL-THA-8416115c-1] | 1.06
42 | COCC1(C(=O)Nc2cncc3ccccc23)CCOc2cc(Cl)c(Cl)cc21 (stereo not shown) [EDJ-MED-37aac4bd-2] | 4.04
43 | O=C(Nc1cncc2ccccc12)C(O)c1ccc(Cl)c(Cl)c1 (stereo not shown) [MAT-POS-fce787c2-4] | 2.01
44 | O=C(Cc1cc(Cl)cc2c1OCC2)Nc1cncc2ccccc12 | 0.97
45 | CN(C)C(=O)CN1CCC(C(=O)Nc2cncc3ccccc23)c2cc(Cl)ccc21 (stereo not shown) [RAL-THA-8416115c-9] | 2.54
46 | O=C(Nc1c[nH]c(=O)c2ccccc12)C1CCOc2ccc(Cl)cc21 (stereo not shown) [JOH-UNI-f51e3bbc-1] | 91.6
47 | COc1ccccc1OCCNC(=O)c1cc(=O)[nH]c2cccc(C)c12 | 6.61
48 | COCCN1CCC(C(=O)Nc2cncc3ccccc23)c2cc(Cl)ccc21 (stereo not shown) [RAL-THA-4aa06b95-7] | 0.564
49 | COCc1ccc(N(C(=O)c2c[nH]cn2)C(C(=O)NCCc2cccc(F)c2)c2cccnc2)cc1 (stereo not shown) [BRU-THA-92256091-23] | 62.9
50 | O=C(c1cc(=O)[nH]c2ccccc12)N1CCN(Cc2cccc(Cl)c2)CC1 [ERI-UCB-a0b0dbcb-12] | 4.57

Row | Structure (SMILES) | IC50 [µM]
51 | CC(C)(C)c1ccc(N(C(=O)c2ccco2)C(C(=O)N2CCOCC2)c2cccnc2)cc1 (stereo not shown) [ALP-POS-0c0a3b93-1] | 41
52 | O=C(Cc1cccc(Cl)c1)Nc1cncc2c1CCCN2 [MAT-POS-14ad9fe9-1] | 5.66
53 | CN(C)c1ccc(N(Cc2ccsc2)C(=O)Cn2nnc3ccccc32)cc1 [ALP-POS-d2866bdf-1] | 3.58
54 | Cc1ccncc1NC(=O)Cc1cc(Cl)cc(OC2CC(=O)N2)c1 (stereo not shown) | 2.28
55 | O=C(Cc1ccncc1Cl)Nc1cncc2ccccc12 [RAL-THA-2d450e86-34] | 52.6
56 | O=C(Cc1cccc(Cl)c1F)Nc1cncc2ccccc12 [RAL-THA-2d450e86-19] | 23.6
57 | O=C(Nn1nnc2ccccc21)C(Cc1cccc(Cl)c1)c1ccc(N2CCCCC2=O)cc1 (stereo not shown) [ALP-POS-a3de0cb1-13] | 66.4
58 | Cn1cncc1NC(=O)Cc1cccc(Cl)c1 | 96.4
59 | COC(=O)CNC(=O)C(c1cccnc1)N(C(=O)c1cocn1)c1ccc(C(C)(C)C)cc1 (stereo not shown) [ALP-POS-88a7a97e-33] | 10.8
60 | Cc1c(Cl)ccc2c1[C@H](C(=O)Nc1cncc3ccccc13)CCO2 [EDJ-MED-e4b030d8-8] | 3.67
61 | N#Cc1ncn(CC(=O)Nc2ccc(Br)cc2Cl)n1 [MAT-POS-e10a589d-4] | 9.3
62 | CC(C)(C)c1ccc(N(C(=O)c2cocn2)C(C(=O)NCCc2cccc(F)c2)c2cncnc2)cc1 (stereo not shown) [ALP-POS-d0876c20-17] | 2.92
63 | CC(C)(C)c1ccc(N(C(=O)c2cncs2)C(C(=O)NCCc2cccc(F)c2)c2cccnc2)cc1 (stereo not shown) [ALP-POS-305f6ec3-41] | 24.2
64 | O=C(Nc1cncc2ccccc12)C1CCOc2c(O)cc(Cl)cc21 (stereo not shown) [ALP-POS-ce760d3f-1] | 0.579
65 | O=C(Cc1cccc(Cl)c1)Nc1nnn[nH]1 [JAN-GHE-5a013bed-11] | 45.3
66 | CN(C)c1ccc(N(Cc2cscn2)C(=O)Cn2nnc3ccccc32)cc1 [ALP-POS-87c86d55-1] | 9.57
67 | O=C(Cc1cc(Cl)cc(OC2CC(=O)N2)c1)Nc1cc(=O)[nH]c2ccccc12 (stereo not shown) [MAT-POS-3b92565d-6] | 91.1
68 | O=C(c1cc(=O)[nH]c2ccccc12)N1CCN(Cc2cccc(C(F)(F)F)c2)CC1 [ERI-UCB-a0b0dbcb-13] | 34.2
69 | Cc1ccncc1NC(=O)Cc1cccc(F)c1 | 95.8
70 | O=C(c1cc(=O)[nH]c2ccccc12)N1CCN(c2ccc(F)cc2)CC1 [BEN-DND-7e92b6ca-14] | 34.6
71 | O=C(Cc1cc(Cl)cc(Cl)c1)Nc1cncc2ccccc12 [MAT-POS-fce787c2-2] | 1.37
72 | CC(=O)NCc1cc(Cl)cc(CC(=O)Nc2cnccc2C)c1 | 48.4
73 | Cn1ccc2cc(N(C(=O)c3cocn3)C(C(=O)NCCc3cccc(F)c3)c3cccnc3)ccc21 (stereo not shown) [ALP-POS-ced8ea4d-20] | 23.8
74 | COc1ccc(N(Cc2cccc(Cl)c2)C(=O)Cn2nnc3ccccc32)cc1 [CHO-MSK-00c5269a-2] | 3.4

Same assay, conditions: ML dataset, Origin ChEMBL; ref ChEMBL; cited from earlier work

Row | Structure (SMILES) | IC50 [µM]
75 | Cc1ccc(C)c(-n2sc3cc(F)ccc3c2=O)c1 [CHEMBL1725120, Cc1cc(N2Sc(cc(cc3)F)c3C2=O)c(C)cc1, reference compound] | 0.02
76 | O=C(Oc1cncc(Cl)c1)c1ccco1 [CHEMBL222840, O=C(c1ccco1)Oc1cc(Cl)cnc1, reference compound] | 0.06
77 | CC[C@H](CO)Nc1nc(NCc2ccc(-c3ccccn3)cc2)c2ncn(C(C)C)c2n1 [CHEMBL518800, CC[C@H](CO)Nc1nc(NCc(cc2)ccc2-c2ncccc2)c2ncn(C(C)C)c2n1, reference compound] | 0.84
78 | O=C(Oc1cncc(Br)c1)c1ccco1 [CHEMBL222234, O=C(c1ccco1)Oc1cc(Br)cnc1, reference compound] | 0.05
79 | Cc1nn(C)c(NCc2ccc(-c3cccs3)s2)c1[N+](=O)[O-] [CHEMBL375130] | 20
80 | C/N=c1/nc(-c2ccccc2)n(-c2ccccc2)s1 [CHEMBL1188627, C/N=C(/N=C1c2ccccc2)\SN1c1ccccc1, reference compound] | 0.98
81 | C[C@H]1COc2c(N3CCN(C)CC3)c(F)cc3c(=O)c(C(=O)O)cn1c23 [CHEMBL33] | 7.6
82 | O=C(Oc1cncc(Cl)c1)c1cc2ccccc2[nH]1 [CHEMBL225515, O=C(c1cc(cccc2)c2[nH]1)Oc1cc(Cl)cnc1, reference compound] | 0.065
